Measurements reported in US20250353842A1, “BICYCLIC AMINE CDK12 INHIBITORS” (Incyte Corporation, priority 2022, published 2025).

Target: CDK12 complexed with Cyclin K (Homo sapiens (Human), UniProt Q9NYV4)
Experiment: CDK enzymatic assay (HTRF, LANCE Ultra kinase assay)
Type: biochemical
Settings: 60 minutes pre-incubation, 1 mM ATP
Protocol: The following activity of the CDK enzymes in complex with their respective cyclins we assayed: CDK1 complexed with Cyclin B1; CDK2 complexed with Cyclin E1; CDK4 complexed with Cyclin D1; CDK6 complexed with Cyclin D1; CDK6 complexed with Cyclin D3; CDK9 complexed with Cyclin T1; CDK7 complexed with Cyclin H/MAT1; CDK2 complexed with Cyclin A2; CDK5 complexed with p35; CDK12 complexed with Cyclin K; CDK13 complexed with Cyclin K. These in vitro enzyme activity are assayed using homogeneous time-resolved energy transfer (HTRF), which measures phosphorylation of a peptide substrate. The LANCE® Ultra kinase assay (PerkinElmer) uses a ULight™-labeled EIF4E-binding protein 1 (THR37/46) peptide (DYSTTPGGTLFSTTPGTRI) (SEQ ID NO: 1) substrate and a Europium-labeled anti-phospho-4E-BP1 antibody (CDK2, CDK1, CDK4, CDK6, CDK9, CDK12, CDK13) or ULight™-labeled Myelin Basic Protein peptide (VTPRTPPP) (SEQ ID NO: 2) substrate and a Europium-labeled anti-phospho-MBP antibody (CDK7). Each CDK enzyme activity assays utilized human CDK co-expressed as N-terminal GST-tagged protein with its full length cyclin partner using a baculovirus expression system.
Enzyme was pre-incubated with compounds for 30 minutes (CDK1,2,4,6,9) or 60 minutes (CDK7, CDK12, CDK13) prior to addition of ATP and Ulight-peptide (1 mM and 50 nM final, respectively), in assay buffer containing 50 mM HEPES pH 7.5, 1 mM EGTA, 10 mM MgCl2, 2 mM DTT, 0.05 mg/mL BSA, and 0.01% Tween 20.
The reaction was then incubated for 60-90 minutes at room temperature. The reactions were stopped by the addition of EDTA and Europium labeled antibody, for a final concentration of 15 mM and 1.0-1.5 nM, respectively. HTRF signals were read after 15-120 minutes. A ratio of fluorescence transferred to the labeled substrate (665 nm) relative to fluorescence of the Europium donor (620 nm) represents the extent of phosphorylation. Ratios for treated wells were normalized to DMSO only (100% activity) and no enzyme (0% activity) controls. Normalized data was analyzed using a three or four parameter dose response curve to determine IC50 for each compound and are shown in Table A. Control reference inhibitors were included on each plate.

CDK12 complexed with Cyclin K, sequence (Q9NYV4 whole entry): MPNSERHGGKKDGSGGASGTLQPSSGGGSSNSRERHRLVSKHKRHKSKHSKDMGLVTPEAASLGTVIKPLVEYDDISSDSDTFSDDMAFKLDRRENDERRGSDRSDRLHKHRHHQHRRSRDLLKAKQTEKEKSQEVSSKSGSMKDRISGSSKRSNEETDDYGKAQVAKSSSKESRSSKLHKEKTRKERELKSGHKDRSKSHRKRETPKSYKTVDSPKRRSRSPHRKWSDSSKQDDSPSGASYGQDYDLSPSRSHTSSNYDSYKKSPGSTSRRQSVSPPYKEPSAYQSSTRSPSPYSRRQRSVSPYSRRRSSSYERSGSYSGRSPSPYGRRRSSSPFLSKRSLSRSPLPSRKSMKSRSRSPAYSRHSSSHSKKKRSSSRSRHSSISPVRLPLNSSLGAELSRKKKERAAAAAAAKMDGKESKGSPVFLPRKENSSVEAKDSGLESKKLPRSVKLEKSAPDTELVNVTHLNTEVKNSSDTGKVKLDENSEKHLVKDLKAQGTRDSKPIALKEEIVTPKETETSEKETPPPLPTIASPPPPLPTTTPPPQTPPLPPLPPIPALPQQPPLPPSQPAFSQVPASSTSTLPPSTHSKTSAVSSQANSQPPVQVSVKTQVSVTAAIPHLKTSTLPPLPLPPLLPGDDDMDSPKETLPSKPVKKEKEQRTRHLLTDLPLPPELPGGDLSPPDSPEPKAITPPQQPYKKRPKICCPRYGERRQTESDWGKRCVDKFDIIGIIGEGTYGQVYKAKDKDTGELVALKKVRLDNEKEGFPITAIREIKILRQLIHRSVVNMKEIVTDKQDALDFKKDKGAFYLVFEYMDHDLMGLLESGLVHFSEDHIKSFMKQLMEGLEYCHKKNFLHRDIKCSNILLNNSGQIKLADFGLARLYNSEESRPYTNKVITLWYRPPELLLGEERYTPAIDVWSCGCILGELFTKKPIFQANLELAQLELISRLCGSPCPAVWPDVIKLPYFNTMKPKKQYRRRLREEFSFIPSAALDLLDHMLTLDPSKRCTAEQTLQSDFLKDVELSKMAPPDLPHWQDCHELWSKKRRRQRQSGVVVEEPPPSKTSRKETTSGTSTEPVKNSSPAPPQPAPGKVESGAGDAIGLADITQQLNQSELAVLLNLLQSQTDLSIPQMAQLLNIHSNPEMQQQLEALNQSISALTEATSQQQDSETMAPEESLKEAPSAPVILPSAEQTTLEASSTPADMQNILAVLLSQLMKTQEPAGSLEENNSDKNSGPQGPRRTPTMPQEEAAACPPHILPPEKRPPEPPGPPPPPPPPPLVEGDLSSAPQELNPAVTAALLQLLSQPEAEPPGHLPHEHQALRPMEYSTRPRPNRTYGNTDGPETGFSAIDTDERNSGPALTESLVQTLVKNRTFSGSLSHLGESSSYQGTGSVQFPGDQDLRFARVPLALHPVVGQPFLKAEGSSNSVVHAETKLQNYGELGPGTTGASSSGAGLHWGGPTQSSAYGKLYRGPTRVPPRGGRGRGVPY
CDK12 complexed with Cyclin K, sequence (O75909 whole entry partner): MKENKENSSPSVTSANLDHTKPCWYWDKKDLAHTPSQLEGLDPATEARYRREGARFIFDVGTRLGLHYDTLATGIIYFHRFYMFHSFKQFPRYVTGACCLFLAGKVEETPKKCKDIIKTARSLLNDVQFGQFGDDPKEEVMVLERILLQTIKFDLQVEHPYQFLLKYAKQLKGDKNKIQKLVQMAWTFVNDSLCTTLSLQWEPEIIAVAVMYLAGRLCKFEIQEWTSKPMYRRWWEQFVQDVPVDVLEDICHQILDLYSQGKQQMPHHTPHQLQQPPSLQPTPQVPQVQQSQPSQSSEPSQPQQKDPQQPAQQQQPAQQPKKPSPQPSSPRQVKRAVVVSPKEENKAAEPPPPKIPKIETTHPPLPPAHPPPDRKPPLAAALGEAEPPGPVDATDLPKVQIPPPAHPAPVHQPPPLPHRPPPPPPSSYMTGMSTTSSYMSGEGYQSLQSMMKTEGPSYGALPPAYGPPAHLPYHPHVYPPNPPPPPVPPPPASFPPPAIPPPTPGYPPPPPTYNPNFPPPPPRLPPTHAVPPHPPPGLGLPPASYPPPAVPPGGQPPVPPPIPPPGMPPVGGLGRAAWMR

| Structure (SMILES) | IC50 |
| --- | --- |
| N#Cc1cnc2c(c1)ncn2[C@H]1CCC[C@@H](Nc2ncc(-c3cn[nH]c3)c(-c3cnn(CC(F)F)c3)n2)C1 [Example 57, 3-((1S,3R)-3-((4-(1-(2,2-Difluoroethyl)-1H-pyrazol-4-yl)-5-(1H-pyrazol-4-yl)pyrimidin-2-yl)amino)cyclohexyl)-3H-imidazo[4,5-b]pyridine-6-carbonitrile] | 50 to 500 nM |
| Cc1cnc(-c2nc(N[C@@H]3CCC[C@H](n4cnc5cc(C#N)cnc54)C3)ncc2C#N)n1C [Example 29, 3-((1S,3R)-3-((5-Cyano-4-(1,5-dimethyl-1H-imidazol-2-yl)pyrimidin-2-yl)amino)cyclohexyl)-3H-imidazo[4,5-b]pyridine-6-carbonitrile] | 50 to 500 nM |
| Cc1c(-c2nc(N[C@@H]3CCC[C@H](n4cnc5cccnc54)C3)ncc2C#N)cnn1C [Example 17, 2-(((1R,3S)-3-(3H-Imidazo[4,5-b]pyridin-3-yl)cyclohexyl)amino)-4-(1,5-dimethyl-1H-pyrazol-4-yl)pyrimidine-5-carbonitrile] | 50 to 500 nM |
| Cc1ccncc1-c1cnc2c(c1)ncn2[C@H]1CCC[C@@H](Nc2ncc(C#N)c(-c3cnn(CC(F)F)c3)n2)C1 [Example 77, 4-(1-(2,2-Difluoroethyl)-1H-pyrazol-4-yl)-2-(((1R,3S)-3-(6-(4-methylpyridin-3-yl)-3H-imidazo [4,5-b]pyridin-3-yl)cyclohexyl)amino)pyrimidine-5-carbonitrile] | 50 to 500 nM |
| CCn1cc(-c2nc(N[C@@H]3CCC[C@H](n4cnc5cc(C#N)cnc54)C3)ncc2C#N)cn1 [Example 73, 3-((1S,3R)-3-((5-Cyano-4-(1-ethyl-1H-pyrazol-4-yl)pyrimidin-2-yl)amino)cyclohexyl)-3H-imidazo[4,5-b]pyridine-6-carbonitrile] | < 50 nM |

Now from value to compound:

| IC50 | Structure (SMILES) |
| --- | --- |
| < 50 nM | N#Cc1cnc2c(ccn2[C@H]2CCC[C@@H](Nc3ncc(C(F)(F)F)c(-c4cnn(CC(F)F)c4)n3)C2)c1 [Example 15, 1-((1S,3R)-3-((4-(1-(2,2-Difluoroethyl)-1H-pyrazol-4-yl)-5-(trifluoromethyl)pyrimidin-2-yl)amino)cyclohexyl)-1H-pyrrolo[2,3-b]pyridine-5-carbonitrile] |
| < 50 nM | Cn1cnc(-c2nc(N[C@@H]3CCC[C@H](n4cnc5cc(C#N)cnc54)C3)ncc2C#N)c1 [Example 61, 3-((1S,3R)-3-((5-Cyano-4-(1-methyl-1H-imidazol-4-yl)pyrimidin-2-yl)amino)cyclohexyl)-3H-imidazo[4,5-b]pyridine-6-carbonitrile] |
| < 50 nM | Cn1cc(-c2cnc3c(c2)ncn3[C@H]2CCC[C@@H](Nc3ncc(C(F)(F)F)c(-c4cnn(CC(F)F)c4)n3)C2)cn1 [Example 81, 4-(1-(2,2-Difluoroethyl)-1H-pyrazol-4-yl)-N-((1R,3S)-3-(6-(1-methyl-1H-pyrazol-4-yl)-3H-imidazo[4,5-b]pyridin-3-yl)cyclohexyl)-5-(trifluoromethyl)pyrimidin-2-amine] |
| < 50 nM | N#Cc1cccc2ncn([C@H]3CCC[C@@H](Nc4ncc(C(F)(F)F)c(-c5cnn(CC(F)F)c5)n4)C3)c12 [Example 87, 1-((1S,3R)-3-((4-(1-(2,2-Difluoroethyl)-1H-pyrazol-4-yl)-5-(trifluoromethyl)pyrimidin-2-yl)amino)cyclohexyl)-1H-benzo[d]imidazole-7-carbonitrile] |
| < 50 nM | N#Cc1cnc(N[C@@H]2CCC[C@H](n3cnc4cncc(C#N)c43)C2)nc1-c1cnn(CC(F)F)c1 [Example 31, 1-((1S,3R)-3-((5-Cyano-4-(1-(2,2-difluoroethyl)-1H-pyrazol-4-yl)pyrimidin-2-yl)amino)cyclohexyl)-1H-imidazo[4,5-c]pyridine-7-carbonitrile] |
| < 50 nM | Cc1ccnc2c1ncn2[C@H]1CCC[C@@H](Nc2ncc(C#N)c(-c3cnn(CC(F)F)c3)n2)C1 [Example 8, 4-(1-(2,2-Difluoroethyl)-1H-pyrazol-4-yl)-2-(((1R,3S)-3-(7-methyl-3H-imidazo[4,5-b]pyridin-3-yl)cyclohexyl)amino)pyrimidine-5-carbonitrile] |
